The subject of data set [1] is 5′-biotinylated dsDNA oligomer (DNA, duplex) TGTAATCGTAGGTTGGTCCCATCACCCACC/GGTGGGTGATGGGACCAACCTACGATTACA
Description: SPR biosensor kinetics, immobilised DNA. The note with it: PBS buffer; monoexponential fit, single site.

For data set [2], the system named is MCF7 human breast adenocarcinoma cells. Briefly: MTT cytotoxicity assay, MCF7 cells. The format is cell-based. The note with it: for IC50: MTT, 72 h exposure, mean ± SD of three experiments; for SI MCF7 MCF10A: selectivity index, values equal IC50 MCF10A / IC50 MCF7. The method, then:
(§1) The stability of [1]-Cl-[4]-Cl was evaluated in aqueous phosphate-buffered solution (PBS, pH 7.4) using UV–visible spectroscopy. […] The cytotoxicity of the compounds was measured according to a standard MTT assay against human breast cancer (MCF7 and MCF7CR) and ovarian cancer (A2780 and A2780cis) cell lines, and also nontumorigenic MCF10A and human embryonic kidney HEK293T cells (Table ).
(§2) All cell lines were grown in a humidified 5% CO2 environment at 37 °C in dedicated media. Growth media comprised minimum essential medium (MEM) supplemented with 10% FBS, 1% sodium pyruvate, antibiotics, and antimycotic agents for MCF7. MCF10A cells were cultured in a DMEM/F12 Ham’s mixture supplemented with 5% equine serum, 20 ng/mL EGF, 10 μg/mL insulin, […], antibiotics, and antimycotics. MCF7-CR cells were grown in minimum essential medium (MEM), 10% FBS supplemented with 0.1 mg/mL cisplatin, sodium pyruvate, antibiotics, and antimycotics. A2780 and A2780cis cells were cultured in RPMI 1640 GlutaMAX, and HEK293T cells were cultured in DMEM GlutaMAX medium containing 10% heat-inactivated FBS and antibiotics. The effect exerted on cell viability by the compounds was determined using the 3-(4,5-dimethylthiazol-2-yl)-2,5-diphenyltetrazolium bromide (MTT) assay. After individual treatments with 0–100 μM of the compound for 72 h, MTT was added to the culture media at a final concentration of 0.5 mg/mL and incubated for 2 h at 37 °C. Cisplatin was used as a positive control. The medium was replaced with 100 μL of DMSO, and after 10 min, the optical density was recorded at 550 nm on a microplate reader. At least six cultures were used for each data point. Chemicals (Merck-Sigma, Milan, Italy) and plasticware (Corning, Milan, Italy) were cell culture grade.
Background: Tetrazolium dyes change colour on reduction, which living cells bring about.

Data set [3] concerns MCF7-CR cisplatin-resistant breast cancer cells. Briefly: MTT cytotoxicity assay, MCF7CR cells. In kind it is cell-based, human. As to conditions: 72 h exposure, mean ± SD of three experiments. The method, then:
as §1, §2

In data set [4] the test system is A2780 human ovarian carcinoma cells. Briefly: MTT cytotoxicity assay, A2780 cells. As to conditions: for IC50: MTT, 72 h exposure, mean ± SD of three experiments; for SI A2780 HEK293T: selectivity index, values equal IC50 HEK293T / IC50 A2780. The format is cell-based. The method, then: as §1, §2
Data set [5] relates to A2780cis cisplatin-resistant ovarian cancer cells. Briefly: MTT cytotoxicity assay, A2780cis cells. As to conditions: 72 h exposure, mean ± SD of three experiments. In kind it is cell-based, human. How it is done: as §1, §2
The subject of data set [6] is HEK293T human embryonic kidney cells. Description: MTT cytotoxicity assay, HEK293T cells. In kind it is cell-based. As to conditions: 72 h exposure, mean ± SD of three experiments. How it is done:
as §1, §2

For data set [7], the system named is MCF10A nontumorigenic cells. Description: MTT cytotoxicity assay, MCF10A cells. The format is cell-based, human. As to conditions: 72 h exposure, mean ± SD of three experiments. The method, then: as §1, §2
A further data set has as its system dsDNA oligomer. Description: SPR biosensor binding to surface-anchored dsDNA oligomer. The note with it: surface-blocked DNA oligomer; for Kd: equilibrium dissociation constant. The method, then:
The DNA binding ability of curcuminoid ligands and their complexes was evaluated by using a Surface plasmon resonance (SPR) biosensor. The monoexponential nature of binding kinetics for all the compounds is consistent with the presence of a single high-affinity site on DNA (Figure ).
The binding kinetics/affinities of the molecules of interest for DNA were studied according to a previously described biosensor-based method. Briefly, streptavidin was anchored to a carboxylate surface via EDC/NHS chemistry, and 5′-biotinylated dsDNA oligomer (sequence: 3′-[…]-5′) was coupled to surface-blocked streptavidin. Compounds were independently added to the DNA-coated surface at different concentrations, each time following binding kinetics up to equilibrium. PBS buffer was used for both the dissociation and the regeneration steps. Experimental data were fitted to both mono- and biexponential models, and the validity of each model was assessed by a standard F-test procedure. The binding sites on DNA were mapped according to independent competitive binding assays individually using a minor groove binder (GelRed) and a major groove binder (methyl green), respectively. Briefly, GelRed displacement was monitored by comparing the emission spectra of solutions containing different concentrations of curcuminoid-like ligands/complexes (0–100 μM), 20 μM DNA, and GelRed (10 μM) in 10 mM phosphate buffer, pH 7.4. Similarly, methyl green displacement assay was performed by monitoring the absorbance at 630 nm upon addition of candidate competitors (0–100 μM), 100 μM DNA, and methyl green (10 μM) in 50 mM Tris–HCl buffer and 7.5 mM MgSO4, pH 7.5.

The target in data set [8] is 20S proteasome chymotrypsin-like activity (Homo sapiens, UniProt P28074). Briefly: Isolated 20S proteasome, chymotrypsin-like activity (Suc-Leu-Leu-Val-Tyr-AMC). The note with it: 0–100 μM, 1 h, 37 °C, pH 8.0. In kind it is biochemical. How it is done:
(§3) Proteasome inhibition by the compounds was evaluated with respect to three major activities of the 20S proteasome, namely, chymotrypsin-like, trypsin-like, and caspase-like activities.
(§4) The effect of the compounds on the activity of the isolated 20S proteasome was tested using specific synthetic fluorogenic peptide substrates (Suc-Leu-Leu-Val-Tyr-AMC, Z-Leu-Ser-Thr-Arg-AMC, and Z-Leu-Leu-Glu-AMC for chymotrypsin-like, trypsin-like, and peptidyl glutamyl peptide hydrolase activity, respectively) as reported elsewhere. Briefly, individual mixtures consisting of the compounds (0–100 μM), 1 μg of isolated 20S proteasome, the specific substrate, and 50 mM Tris–HCl pH 8.0 up to a final volume of 100 μL were incubated at 37 °C, and after 1 h, the fluorescence measurements of the hydrolyzed AMC were recorded on a SpectraMax Gemini XPS microplate reader (λexc = 365 nm, λem = 449 nm).

For data set [9], the target named is 20S proteasome trypsin-like activity (Homo sapiens, UniProt Q99436). Description: Isolated 20S proteasome, trypsin-like activity (Z-Leu-Ser-Thr-Arg-AMC). As to conditions: for IC50: 0–100 μM, 1 h, 37 °C, pH 8.0. In kind it is biochemical. The method, then:
as §3, §4

For data set [10], the target named is 20S proteasome PGPH (caspase-like) activity (Homo sapiens, UniProt P28072). Description: Isolated 20S proteasome, peptidyl glutamyl peptide hydrolase (caspase-like) activity (Z-Leu-Leu-Glu-AMC). In kind it is biochemical. As to conditions: 0–100 μM, 1 h, 37 °C, pH 8.0. How it is done: as §3, §4
Data set [11] can be described thus: Solubility in water (qualitative). In kind it is physicochemical.

Consider eleven compounds from publication PMC12153055 (Organometallics, 2025).

For the compound `COc1cc(/C=C/c2cc(/C=C/c3ccc(O)c(OC)c3)n(-c3ccccn3)n2)ccc1O`, in data set [1], the KD (in general, the free concentration of one partner at which half of the binding sites on the other are occupied at equilibrium, for simple one-to-one binding) worked out at 4.5 ± 2.7 µM.

In data set [1], `COc1cc(/C=C/c2cc(/C=C/c3ccc(O)c(OC)c3)n(-c3ccccn3)n2)ccc1O.Cc1ccc(C(C)C)cc1.[Cl-].[Os+2]` showed a KD of 4.2 ± 1.8 µM.

In data set [1], `COc1cc(/C=C/c2cc(/C=C/c3ccc(O)c(OC)c3)n(-c3ccccn3)n2)ccc1O.Cc1ccc(C(C)C)cc1.[Cl-].[Ru+2]` returned a KD of 0.29 ± 0.14 µM.

Take `Cc1ccc(C(C)C)cc1.Oc1ccc(/C=C/c2cc(/C=C/c3ccc(O)cc3)n(-c3ccccn3)n2)cc1.[Cl-].[Os+2]`: the KD in data set [1] was determined as 39.2 ± 17.0 µM.

In turn, `Cc1ccc(C(C)C)cc1.Oc1ccc(/C=C/c2cc(/C=C/c3ccc(O)cc3)n(-c3ccccn3)n2)cc1.[Cl-].[Ru+2]` displayed a KD in data set [1] of 2.2 ± 1.5 µM.

Consider `Oc1ccc(/C=C/c2cc(/C=C/c3ccc(O)cc3)n(-c3ccccn3)n2)cc1`, for which, in data set [1], the KD turned out to be 17.0 ± 7.3 µM.

As for `N.N.[Cl][Pt][Cl]` [Cisplatin, reference compound], the IC50 (usually the concentration needed to halve the response being measured) worked out at 4.2 ± 2.3 µM in [2]; 49.1 ± 7 µM in data set [3]; 0.25 ± 0.02 µM in [4]; 7 ± 1 µM in [5]; 2.8 ± 0.5 µM in data set [6].

Regarding `COc1cc(/C=C/c2cc(/C=C/c3ccc(O)c(OC)c3)n(-c3ccccn3)n2)ccc1O` [HZPcurc, 4,4′-((1E,1′E)-(1-(pyridin-2-yl)-1H-pyrazole-3,5-diyl)bis(ethene-2,1-diyl))bis(2-methoxyphenol)], the IC50 in [2] (Homo sapiens, MCF7) was found to be 23 ± 6 µM; in data set [3] (Homo sapiens), 17.7 ± 3.6 µM; in data set [7] (Homo sapiens, MCF-10A) it was 7 ± 4.5 µM; in data set [4] (Homo sapiens, A2780), 5.3 ± 0.4 µM; in data set [5] (Homo sapiens, A2780cis) it was 6.7 ± 0.6 µM; in data set [6] (Homo sapiens, HEK-293T), 16.4 ± 0.6 µM. Besides, the IC50 in data set [8], in data set [9] and in data set [10] was over 100 µM in each case. Besides, the “SI MCF7 MCF10A” value in data set [2] is 0.30. Besides, in data set [4], the “SI A2780 HEK293T” value was 3.10. This compound returned a kass in the data set with dsDNA oligomer of 2994 ± 1142 M^–1s^–1. The compound further returned a kdiss on dsDNA oligomer of 0.013 ± 0.009 s^–1. Moreover, the Kd (in general, the equilibrium constant for the complex coming apart) at dsDNA oligomer worked out at 4.5 ± 2.7 µM. For the same compound, in data set [11], the solubility in water result is “insoluble in H2O”.

Consider `COc1cc(/C=C/c2cc(/C=C/c3ccc(O)c(OC)c3)n(-c3ccccn3)n2)ccc1O.Cc1ccc(C(C)C)cc1.[Cl-].[Cl][Ru+]` [[1]Cl, [Ru(p-cym)(HZPcurc)Cl]Cl], for which the IC50 is 49.2 ± 5 µM in [2]; 41 ± 10 µM in data set [3]; 31.7 ± 10 µM in data set [7]; 4.6 ± 0.3 µM in data set [4]; 6.6 ± 0.9 µM in data set [5]; 25 ± 1 µM in data set [6]. Moreover, the IC50 in data set [8] is over 100 µM; in data set [9] it was 63 ± 7 µM; in [10] it was over 100 µM. In data set [2], the “SI MCF7 MCF10A” value is recorded as 0.64. Besides, the “SI A2780 HEK293T” value in [4] turned out to be 5.43. The kass in the data set with dsDNA oligomer came to 32082 ± 773 M^–1s^–1. In addition, the kdiss on dsDNA oligomer stood at 0.009 ± 0.004 s^–1. For the same compound, the affinity at dsDNA oligomer, expressed as Kd, was 0.29 ± 0.14 µM. Further, the “inhibition of the trypsin-like activity (in words)” value (“inhibition” for short) in [9] was “inhibition of the trypsin-like activity”. For the same compound, in [11], the solubility in water result is on record as “soluble in polar solvents, including H2O”.

With `COc1cc(/C=C/c2cc(/C=C/c3ccc(O)c(OC)c3)n(-c3ccccn3)n2)ccc1O.Cc1ccc(C(C)C)cc1.[Cl-].[Cl][Os+]` [[2]Cl, [Os(p-cym)(HZPcurc)Cl]Cl], the IC50 in data set [2] is over 100 µM; in data set [3] it was over 100 µM; in [7], 25.6 ± 15 µM; in data set [4], 6.3 ± 0.5 µM; in data set [5], 12.1 ± 0.6 µM; in data set [6], 25 ± 8 µM. Also, the concentration for half-maximal inhibition (IC50) is 84 ± 60 µM in data set [8], 51 ± 13 µM in data set [9] and over 100 µM in data set [10]. For the same compound, the “SI A2780 HEK293T” value in data set [4] turned out to be 3.97. This compound showed a kass in the data set on dsDNA oligomer of 1156 ± 179 M^–1s^–1. At dsDNA oligomer, the kdiss came to 0.005 ± 0.002 s^–1. On dsDNA oligomer, this compound yielded a dissociation constant Kd of 4.2 ± 1.8 µM. In addition, the “inhibition” value in data set [9] is “inhibition of the trypsin-like activity”. Besides, the solubility in water result in [11] is on record as “completely soluble”.

In the case of `Cc1ccc(C(C)C)cc1.Oc1ccc(/C=C/c2cc(/C=C/c3ccc(O)cc3)n(-c3ccccn3)n2)cc1.[Cl-].[Cl][Os+]` [[4]Cl, [Os(p-cym)(HZPbdcurc)Cl]Cl], the IC50 in data set [2] was over 100 µM; in [3] it was over 100 µM; in [7], 25.8 ± 10 µM; in data set [4], 2.4 ± 0.4 µM; in data set [5], 5.4 ± 0.3 µM; in data set [6] it was 32 ± 2 µM. Besides, the figures for the IC50 in data set [8], in data set [9] and in data set [10] were 98 ± 50 µM, 61 ± 44 µM and over 100 µM, respectively. The “SI A2780 HEK293T” value in [4] was determined as 13.33. In the data set on dsDNA oligomer, the kass is 266 ± 102 M^–1s^–1. Moreover, the kdiss on dsDNA oligomer is 0.010 ± 0.002 s^–1. Further, binding on dsDNA oligomer was put at a Kd of 39.2 ± 17 µM. The “inhibition” value in data set [9] was “inhibition of the trypsin-like activity”. Moreover, the solubility in water entry in data set [11] is “partly soluble in H2O”.
